According to patent publication US20250381179A1, “CHROMAN-BASED COMPOUNDS FOR TREATING CANCER” (priority 2024, published 2025):
Read-outs that look alike come from different tables or passages of the source.

Assays:
MCF7 cells = test: MCF7 cell growth inhibition (luminescence-based proliferation assay, CellTiter-Glo)
Procedure: MCF7 cells were obtained from American Type Culture Collection (ATCC). For cell growth assay, MCF7 cells were seeded in 96-well plates at 2000 cells/well in 90 μL of DMEM medium containing 10% fetal bovine serum, and then incubated at 37° C. with 5% CO2 in air overnight. The following day, compound (1-g) and compound (1-h) were administered to the cells by using 1000× compound stock solution prepared in DMSO at concentrations of 3, 1, 0.33, 0.11, 0.037, 0.012, 0.0041, 0.0013, and 0.00046 mM. 1000x compound stock solution was first diluted in culturing medium to 10×, then 10 μL compound medium was added to each well in the cell plates. After administration of compound (1-g) and compound (1-h), the cells were then incubated at 37° C. for 6 days. Upon completion, the plates were equilibrated at room temperature for approximately 10 minutes. 100 μL of CellTiter-Glo® Reagent (Promega) was added to each well. The plates were then incubated at room temperature for 10 minutes and luminescence was recorded by EnSpire plate reader (PerkinElmer).

[1] = Phase 1 study: plasma pharmacokinetics in patients; assay type: in vivo, human; conditions: human, plasma, po; for AUC(0-t): read-out: AUC0-24 h of (1-h); for Tmax: read-out: Tmax* of (1-h); for Cmax: read-out: Cmax of (1-h)
Procedure: All patients received compound (1-g) orally. The time of day for administration of compound (1-g) was consistent. Compound (1-g) was taken whole with liquid(s) and with food in the morning. The patient avoided taking other medications at the same time as compound (1-g). When possible, the patient took other medications in the evening or separated by a minimum of 4 hours following compound (1-g) dosing. On scheduled PK collection days (Cycle 1 Day 1, Cycle 1 Day 15, and Day 1 of Cycles 2, 3, 4, and 6) patients were instructed to wait until they arrive at the study center to take their study drug when told. If a patient missed a dose of compound (1-g), the patient was required to take the dose as soon as possible, but not less than 12 hours before the next dose is due. If vomiting occurred after taking the study treatment, the patient was instructed not to retake the dose and record the dose recorded as taken in the dosing diary, noting that the patient vomited and marking the time of vomiting. Patients were instructed to take the next scheduled dose of compound (1-g).
The plasma PK parameters (including AUC(0-∞), AUC(0-τ), Cmax, tmax, and T1/2) of compound (1-g) following oral administration was assessed by analysis of blood samples. During treatment, PK blood samples were taken at approximately the following time points: • Cycle 1 Day 1, and Day 15: pre-dose; at 1, 2, and 4-hour post-dose (±5 min); 6 and 8-hour post-dose (±10 min); and 24 hours post-dose (+1 hour); • Cycle 2, 3, 4, and 6 Day 1: pre-dose only.
Plasma concentrations of compound (1-g) were used to calculate the PK parameters. These parameters were listed by individual patient and summarized by descriptive statistics (means, medians, ranges, standard deviations, and coefficients of variation as appropriate) by cohort.
Compound (1-g) was administered orally to patients once a day at 100, 200, 300 mg, 400 mg, and 600 mg doses.

[2] = 100 mg, patient plasma after oral (1-g) 100 mg QD, C1D15, n = 2, mean
[3] = 200 mg, patient plasma after oral (1-g) 200 mg QD, C1D1, n = 12, mean
[4] = 200 mg, patient plasma after oral (1-g) 200 mg QD, C1D15, n = 12, mean
[5] = 300 mg, patient plasma after oral (1-g) 300 mg QD, C1D1, n = 10, mean
[6] = 300 mg, patient plasma after oral (1-g) 300 mg QD, C1D15, n = 10, mean
[7] = 400 mg, patient plasma after oral (1-g) 400 mg QD, C1D1, n = 6, mean
[8] = 400 mg, patient plasma after oral (1-g) 400 mg QD, C1D15, n = 5, mean
[9] = 600 mg, patient plasma after oral (1-g) 600 mg QD, C1D1, n = 4, mean
[10] = 600 mg, patient plasma after oral (1-g) 600 mg QD, C1D15, n = 4, mean

GI50 (MCF7 cells; Homo sapiens, 144 h, MCF7 cells, 6 days, CellTiter-Glo): 9 nM | AUC(0-t) ([1]; 100 mg, patient plasma after oral (1-g) 100 mg QD, C1D1, n = 1, mean): 332 ng·h/mL | Tmax ([1]; 100 mg, patient plasma after oral (1-g) 100 mg QD, C1D15, n = 2, *median value): 12 h | AUC(0-t) [1, 2]: 7080 ng·h/mL | Cmax [1, 2]: 326 ng/mL | AUC(0-t) [1, 3]: 1030 ng·h/mL | Cmax [1, 3]: 68.8 ng/mL | Tmax ([1]; 200 mg, patient plasma after oral (1-g) 200 mg QD, C1D15, n = 12, *median value): 7.17 h | AUC(0-t) [1, 4]: 9540 ng·h/mL | Cmax [1, 4]: 428 ng/mL | AUC(0-t) [1, 5]: 1610 ng·h/mL | Cmax [1, 5]: 112 ng/mL | Tmax ([1]; 300 mg, patient plasma after oral (1-g) 300 mg QD, C1D15, n = 10, *median value): 5.8 h | AUC(0-t) [1, 6]: 15400 ng·h/mL | Cmax [1, 6]: 680 ng/mL | AUC(0-t) [1, 7]: 1740 ng·h/mL | Cmax [1, 7]: 118 ng/mL | Tmax ([1]; 400 mg, patient plasma after oral (1-g) 400 mg QD, C1D15, n = 5, *median value): 4.8 h | AUC(0-t) [1, 8]: 17900 ng·h/mL | Cmax [1, 8]: 820 ng/mL | AUC(0-t) [1, 9]: 2470 ng·h/mL | Cmax [1, 9]: 170 ng/mL | Tmax ([1]; 600 mg, patient plasma after oral (1-g) 600 mg QD, C1D15, n = 4, *median value): 10 h | AUC(0-t) [1, 10]: 18700 ng·h/mL | Cmax [1, 10]: 828 ng/mL
Compound: O=C1CC[C@@H](N2Cc3cc(N4CCN(CC5CCN(c6ccc([C@@H]7c8ccc(O)cc8OC[C@@H]7c7ccccc7)cc6F)CC5)CC4)ccc3C2=O)C(=O)N1 [compound (1-h), (R)-3-(5-(4-((1-(2-fluoro-4-((3S,4R)-7-hydroxy-3-phenylchroman-4-yl)phenyl)piperidin-4-yl)methyl)piperazin-1-yl)-1-oxoisoindolin-2-yl)piperidine-2,6-dione]
reduced the tumor growth by (FIG. 3A/3B) (MCF7 cells; MCF7 cell proliferation assay): about 62%
